Results reported in ChEMBL document CHEMBL4385658, “Inhibition of β-amyloid-induced neurotoxicity by planar analogues of procyanidin B3” (Bioorg Med Chem Lett, 2019).
Activity calls are given as the source filed them. The calls are words filed in the database; no cut-off is given here.

Columns and labels:
[1] = molecular target: Amyloid-beta precursor protein (Homo sapiens) (UniProt P05067); test: Inhibition of Amyloid beta (1 to 42) (unknown origin) self aggregation at 20 uM incubated for 12 hrs by thioflavin T assay
[2] = molecular target: Amyloid-beta precursor protein (Homo sapiens) (UniProt P05067); test: Inhibition of Amyloid beta (1 to 42) (unknown origin)-induced cytotoxicity in human SH-SY5Y cells assessed as increase in cell viability at 20 uM incubated for 48 hrs by WST8 assay; format: cell-based
[3] = molecular target: Amyloid-beta precursor protein (Homo sapiens) (UniProt P05067); test: Inhibition of Amyloid beta (1 to 42) (unknown origin)-induced cytotoxicity in human SH-SY5Y cells assessed as increase in cell viability incubated for 48 hrs by WST8 assay; format: cell-based
SH-SY5Y = test: Cytotoxicity in human SH-SY5Y cells assessed as reduction in cell viability at 0.1 to 1000 nM incubated for 48 hrs by WST8 assay; format: cell-based; conditions: 1 µM
[4] = molecular target: Amyloid-beta precursor protein (Homo sapiens) (UniProt P05067); test: Inhibition of Amyloid beta (1 to 42) (unknown origin) fibril formation assessed as reduction in number of fibrils at 20 uM incubated for 48 hrs by transmission-type electron microscopy
[5] = molecular target: Amyloid-beta precursor protein (Homo sapiens) (UniProt P05067); test: Inhibition of Amyloid beta (1 to 42) (unknown origin) fibril formation assessed as reduction in thickness of fibrils at 20 uM incubated for 48 hrs by transmission-type electron microscopy
[6] = molecular target: Amyloid-beta precursor protein (Homo sapiens) (UniProt P05067); test: Inhibition of Amyloid beta (1 to 42) (unknown origin) self aggregation assessed as decrease in negative maximum of CD spectrum of amyloid beta (1-42) incubated for 4 hrs by CD spectroscopy
[7] = molecular target: Amyloid-beta precursor protein (Homo sapiens) (UniProt P05067); test: Inhibition of Amyloid beta (1 to 42) (unknown origin)-induced cytotoxicity in human SH-SY5Y cells assessed as increase in cell viability at 40 uM incubated for 48 hrs by WST8 assay; format: cell-based

Sequence of Amyloid-beta precursor protein (Homo sapiens) (P05067 whole entry): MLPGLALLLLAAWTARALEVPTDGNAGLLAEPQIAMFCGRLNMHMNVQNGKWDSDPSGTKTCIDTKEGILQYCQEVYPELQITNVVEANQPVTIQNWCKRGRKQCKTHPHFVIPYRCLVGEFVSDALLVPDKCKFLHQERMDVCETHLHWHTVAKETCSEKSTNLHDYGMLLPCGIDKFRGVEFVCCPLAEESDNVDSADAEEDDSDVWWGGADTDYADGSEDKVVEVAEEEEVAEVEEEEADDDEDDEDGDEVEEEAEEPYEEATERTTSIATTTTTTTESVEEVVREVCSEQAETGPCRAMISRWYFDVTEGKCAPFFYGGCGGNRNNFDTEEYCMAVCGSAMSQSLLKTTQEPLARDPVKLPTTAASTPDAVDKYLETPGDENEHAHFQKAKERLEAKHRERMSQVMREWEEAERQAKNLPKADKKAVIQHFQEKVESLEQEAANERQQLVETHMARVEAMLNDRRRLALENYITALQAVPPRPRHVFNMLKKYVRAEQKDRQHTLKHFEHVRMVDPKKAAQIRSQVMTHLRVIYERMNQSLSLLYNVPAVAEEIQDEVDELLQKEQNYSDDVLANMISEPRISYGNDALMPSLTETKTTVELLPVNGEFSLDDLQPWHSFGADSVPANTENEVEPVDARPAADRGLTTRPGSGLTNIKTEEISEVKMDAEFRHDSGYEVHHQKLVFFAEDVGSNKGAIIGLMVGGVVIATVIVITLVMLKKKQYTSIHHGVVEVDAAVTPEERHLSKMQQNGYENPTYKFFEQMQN

`Oc1cc(O)c2c(c1)O[C@H](c1ccc(O)c(O)c1)[C@@H](O)C2` was tested, and the inhibition [1] was “Active”.
In the case of `CC1(C)O[C@H]2[C@H](c3c(O)cc(O)c4c3O[C@@H]3c5cc(O)c(O)cc5C(C)(C)O[C@H]3C4)c3c(O)cc(O)cc3O[C@@H]2c2cc(O)c(O)cc21`, the inhibition [2] is reported as 100%, the inhibition [3] is reported as “Dose-dependent effect” and the Activity (SH-SY5Y) is reported as “Non-Toxic”. For the same compound, the inhibition [4] was “Active”, the inhibition [5] was “Active” and the inhibition [6] was “Active”. The inhibition [1] was “Active”.
With `CC1(C)O[C@H]2Cc3c(O)cc(O)c([C@@H]4c5c(O)cc(O)cc5O[C@H](c5ccc(O)c(O)c5)[C@H]4O)c3O[C@@H]2c2cc(O)c(O)cc21` the inhibition [3] was “Dose-dependent effect”, the Activity (SH-SY5Y) was “Non-Toxic” and the inhibition [1] was “Active”. It also gave an inhibition [7] of 100%.
`Oc1cc(O)c2c(c1)O[C@H](c1ccc(O)c(O)c1)[C@@H](O)[C@@H]2c1c(O)cc(O)c2c1O[C@H](c1ccc(O)c(O)c1)[C@@H](O)C2` was tested, and the inhibition [3] was “Dose-dependent effect”, the Activity (SH-SY5Y) was “Non-Toxic” and the inhibition [1] was “Active”. The inhibition [7] was 100%.
For `CC1(C)O[C@H]2Cc3c(O)cc(O)cc3O[C@@H]2c2cc(O)c(O)cc21`, the inhibition [1] was “Active”.
